3 molecules from patent publication US11684611B2, “Compounds for treating diseases associated with a mitochondrial dysfunction” (Amabiotics, priority 2016, dated 2023) can be followed below.

This data set deals with rat primary dopaminergic neurons (TH positive neurons). Briefly: Neuroprotective effect on rat primary cultures of dopaminergic neurons injured by 6-OHDA (count of TH positive neurons). In kind it is cell-based. The settings on record: for survival of primary dopaminergic neuron culture (TH positive neurons), % of control: p<0.05 vs 6-OHDA. As for the experimental part: Accordingly, this study investigates the effect of queuine on rat primary mesencephalic cultures injured by exposure to 6-OHDA.
Rat dopaminergic neurons are cultured as described by Schinelli et al. (1988) J. Neurochem. 50:1900-1907.
Briefly, pregnant female rats (Wistar rats; Janvier) at 15 days of gestation are killed by cervical dislocation and the fetuses are removed from the uterus. The embryonic midbrains is removed and placed in ice-cold Leibovitz medium (L15; PanBiotech) containing 2% of Penicillin-Streptomycin (PS; PanBiotech) and 1% of bovine serum albumin (BSA; PanBiotech). Only the ventral portions of the mesencephalic flexure is used for cell preparations as this is the region of the developing brain rich in dopaminergic neurons. The midbrain is dissociated by trypsinisation for 20 min at 37° C. (Trypsin EDTA 1X; PanBiotech). The reaction is stopped by the addition of Dulbecco's modified Eagle's medium (DMEM; PanBiotech) containing DNAse I grade II (0.1 mg/mL; Roche Diagnostic) and 10% of fetal calf serum (FCS; Invitrogen). The cells are mechanically dissociated by 3 passages through a 10 ml pipette. The dissociated cells are then centrifuged at 180×g for 10 min at 4° C. on a layer of BSA (3.5%) in L15 medium. The supernatant is discarded and the pelleted cells are re-suspended in a culture medium consisting of Neurobasal (Invitrogen, Ref: 21103, Batch: 1725098) supplemented with B27 (2%; Invitrogen, ref: 17504), L-glutamine (2 mM; PanBiotech, Ref: P04-80100) and 2% of PS, 10 ng/mL of BDNF (PanBiotech, Ref: CB-1115002) and 1 ng/mL of GDNF (PanBiotech, Ref: CB-1116001). Viable cells are counted in a Neubauer cytometer using the trypan blue exclusion test. The cells are then seeded at a density of 40 000 cells/well in 96 well-plates pre-coated with poly-D-lysine (Greiner) and are cultured at 37° C. in a humidified air (95%)/CO2 (5%) atmosphere. Half of the medium is changed every 2 days with fresh medium. In these conditions, after 5 days of culture, astrocytes are present in the culture and release growth factor allowing neurons differentiation. Five to six percent of the neuronal cell population are dopaminergic neurons.
Each condition is replicated in six wells of the 96-wells culture plates. 1.4. End Point Evaluation: Determination of the Total Number of Dopaminergic Neurons
At the end of the incubation time, the cells are fixed by a solution of 4% paraformaldehyde for 20 min at room temperature. The cells are then permeabilized and non-specific sites are blocked with a solution of phosphate buffered saline (PBS; PanBiotech) containing 0.1% of saponin (Sigma) and 1% fetal calf serum (FCS) for 15 min at room temperature. Eventually, the cells are incubated with a monoclonal anti-Tyrosine Hydroxylase (TH) mouse antibody (Sigma) in PBS containing 1% FCS and 0.1% saponin, for 2 h at room temperature. The anti-TH antibody targets dopaminergic neurons.
The nuclei of the cells is stained by a fluorescent marker (Hoechst solution, SIGMA) in the same solution.
For each condition, 20 pictures per well are taken using InCell Analyzer™ 2000 (GE Healthcare) with 20× magnification. Images of each culture well are also taken.
The analysis of the cell bodies of TH positive neurons are performed using Developer software (GE healthcare). A total of 6 data per experimental condition is provided. All values are expressed as mean±s.e. mean. For statistical analyses ANOVA is performed followed by Dunnett's test.

On to `NCCc1cc(O)c(O)cc1O` [6-OHDA, 6-hydroxydopamine, reference compound], for which the “effect on number of TH positive neurons” value (6-OHDA alone at 20 μM for 48 h, FIG. 1 and FIG. 2) is “large and significant decrease”.
As for `Nc1nc2[nH]cc(CN[C@H]3C=C[C@H](O)[C@@H]3O)c2c(=O)[nH]1` [queuine, 7-(3,4-trans-4,5-cis-dihydroxy-1-cyclopenten-3-ylaminomethyl)-7-deazaguanine], for the setting “preliminary results, rat primary mesencephalic cultures”, the “effect on 6-OHDA-induced neurotoxicity” value is on record as “neuroprotective effect”. Besides, the “survival of primary dopaminergic neuron culture (TH positive neurons), % of control” value (“survival … % of control” below) (queuine 0.3 μM added 6 days before 6-OHDA intoxication (20 μM, 48 h), FIG. 2) is on record as 80.47 % of the control and the “survival … % of control” value (queuine 1 μM added 1 day (24 hours) before 6-OHDA intoxication (20 μM, 48 h), FIG. 1) is listed as 81.33 % of the control.

B1: BDNF: brain-derived neurotrophic factor, obtained from PanBiotech, used as positive control (protein, UniProt P23560 19-247, looked up)
Neurotrophic factor BDNF …: APMKEANIRGQGGLAYPGVRTHGTLESVNGPKAGSRGLTSLADTFEHVIEELLDEDQKVRPNEENNKDADLYTSRVMLSSQVPLEPPLLFLLEEYKNYLDAANMSMRVRRHSDPARRGELSVCDSISEWVTAADKKTAVDMSGGTVTVLEKVPVSKGQLKQYFYETKCNPMGYTKEGCRGIDKRHWNSQCRTTQSYVRALTMDSKKRIGWRFIRIDTSCVCTLTIKRGR
B1: the “survival … % of control” value runs as follows: (BDNF 50 ng/mL applied 1 day before 6-OHDA intoxication (20 μM, 48 h), FIG. 1) 80.80 % of the control; (BDNF 50 ng/mL applied 6 days before 6-OHDA intoxication (20 μM, 48 h), FIG. 2) 83.44 % of the control.
